Measurements from PubChem BioAssay AID1918998 (Molecular Pharmacology Branch, DTP, NCI, 2023).
One block for each compound: values may come before it.

Tested on: 521955-158-R2-J5-PDC complex spheroid growth
Assay: Anticancer human tumor 521955-158-R2-J5-PDC patient-derived pancreatic carcinoma cell line growth inhibition [AhR]
Conditions: for IC50: curve of first compound; for viability, T/C: stronger effect = lower value
How it was run: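 Spheroids combined tumor cells with HUVEC endothelial cells and human MSCs as stroma. AhR antagonists were paired with standard or investigational drugs, each dosed in half-log steps down from near clinical Cmax, or from 10 microM where Cmax was unknown.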

[1] = second compound 0.1 µM, first compound 0.0316 µM
[2] = second compound 0.1 µM, first compound 0.1 µM
[3] = second compound 0.316 µM, first compound 0.0316 µM
[4] = second compound 0.316 µM, first compound 0.1 µM
[5] = second compound 1 µM, first compound 0.0316 µM
[6] = second compound 1 µM, first compound 0.1 µM
[7] = second compound 3.16 µM, first compound 0.0316 µM
[8] = second compound 3.16 µM, first compound 0.1 µM
[9] = second compound 10 µM, first compound 0.0316 µM
[10] = second compound 10 µM, first compound 0.1 µM
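Wherever viability, T/C is given: spheroids mix tumor cells with HUVEC endothelium and human MSC stroma; luminescence taken as viability surrogate after a week of drug exposure.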

- IC50 (second compound 0.1 µM): 54.2 nM
- IC50 (second compound 0.316 µM): 43.7 nM
- IC50 (second compound 1 µM): 43.1 nM
- IC50 (second compound 3.16 µM): 58.3 nM
- IC50 (second compound 10 µM): > 100 nM
Structure (SMILES): CC[C@@]1(O)C(=O)OCc2c1cc1n(c2=O)Cc2cc3c(CN(C)C)c(O)ccc3nc2-1 + Cc1cncc(-c2nc(NCCc3c[nH]c4ccccc34)c3ncn(C(C)C)c3n2)c1
- viability, T/C (second compound 0.1 µM, first compound 0.000316 µM): 95.1%
- viability, T/C (second compound 0.1 µM, first compound 0.001 µM): 95.6%
- viability, T/C (second compound 0.1 µM, first compound 0.00316 µM): 101%
- viability, T/C (second compound 0.1 µM, first compound 0.01 µM): 76.8%
- viability, T/C [1]: 72.3%
- viability, T/C [2]: 28.1%
- viability, T/C (second compound 0.316 µM, first compound 0.000316 µM): 113%
- viability, T/C (second compound 0.316 µM, first compound 0.001 µM): 105%
- viability, T/C (second compound 0.316 µM, first compound 0.00316 µM): 109%
- viability, T/C (second compound 0.316 µM, first compound 0.01 µM): 78.8%
- viability, T/C [3]: 61.6%
- viability, T/C [4]: 27.1%
- viability, T/C (second compound 1 µM, first compound 0.000316 µM): 117%
- viability, T/C (second compound 1 µM, first compound 0.001 µM): 133%
- viability, T/C (second compound 1 µM, first compound 0.00316 µM): 100%
- viability, T/C (second compound 1 µM, first compound 0.01 µM): 99%
- viability, T/C [5]: 56.9%
- viability, T/C [6]: 25.9%
- viability, T/C (second compound 3.16 µM, first compound 0.000316 µM): 155%
- viability, T/C (second compound 3.16 µM, first compound 0.001 µM): 141%
- viability, T/C (second compound 3.16 µM, first compound 0.00316 µM): 143%
- viability, T/C (second compound 3.16 µM, first compound 0.01 µM): 111%
- viability, T/C [7]: 72.6%
- viability, T/C [8]: 30.5%
- viability, T/C (second compound 10 µM, first compound 0.000316 µM): 214%
- viability, T/C (second compound 10 µM, first compound 0.001 µM): 158%
- viability, T/C (second compound 10 µM, first compound 0.00316 µM): 144%
- viability, T/C (second compound 10 µM, first compound 0.01 µM): 94.5%
- viability, T/C [9]: 103%
- viability, T/C [10]: 38.5%

- IC50 (second compound 0.1 µM): 2440 nM
- IC50 (second compound 0.316 µM): 2220 nM
- IC50 (second compound 1 µM): 2270 nM
- IC50 (second compound 3.16 µM): 2250 nM
- IC50 (second compound 10 µM): 1810 nM
Structure (SMILES): CC1COCCN1c1cc(C2(S(C)(=N)=O)CC2)nc(-c2ccnc3[nH]ccc23)n1 (stereo not given) + CC(CO)NC(=O)c1cc(-c2ccc(Cl)cc2)nn(-c2cnn(C)c2)c1=O
- viability, T/C [1]: 114%
- viability, T/C [2]: 147%
- viability, T/C (second compound 0.1 µM, first compound 0.316 µM): 125%
- viability, T/C (second compound 0.1 µM, first compound 1 µM): 111%
- viability, T/C (second compound 0.1 µM, first compound 3.16 µM): 32.3%
- viability, T/C (second compound 0.1 µM, first compound 10 µM): 17.2%
- viability, T/C [3]: 110%
- viability, T/C [4]: 106%
- viability, T/C (second compound 0.316 µM, first compound 0.316 µM): 130%
- viability, T/C (second compound 0.316 µM, first compound 1 µM): 113%
- viability, T/C (second compound 0.316 µM, first compound 3.16 µM): 21.8%
- viability, T/C (second compound 0.316 µM, first compound 10 µM): 14.1%
- viability, T/C [5]: 113%
- viability, T/C [6]: 108%
- viability, T/C (second compound 1 µM, first compound 0.316 µM): 103%
- viability, T/C (second compound 1 µM, first compound 1 µM): 125%
- viability, T/C (second compound 1 µM, first compound 3.16 µM): 24.8%
- viability, T/C (second compound 1 µM, first compound 10 µM): 12.7%
- viability, T/C [7]: 114%
- viability, T/C [8]: 117%
- viability, T/C (second compound 3.16 µM, first compound 0.316 µM): 146%
- viability, T/C (second compound 3.16 µM, first compound 1 µM): 105%
- viability, T/C (second compound 3.16 µM, first compound 3.16 µM): 20.6%
- viability, T/C (second compound 3.16 µM, first compound 10 µM): 12.3%
- viability, T/C [9]: 89.2%
- viability, T/C [10]: 123%
- viability, T/C (second compound 10 µM, first compound 0.316 µM): 110%
- viability, T/C (second compound 10 µM, first compound 1 µM): 85%
- viability, T/C (second compound 10 µM, first compound 3.16 µM): 17.3%
- viability, T/C (second compound 10 µM, first compound 10 µM): 11.8%
